From patent US12636259B2, “Transdermal absorption preparation” (Sumitomo Pharma Co., Ltd., priority 2020, dated 2026)

Test: Saturation solubility measurement of compound A in additives
Format: physicochemical
Settings: room temperature
Description: Various additives were weighed into a vial, compound A was added until it was no longer dissolved, and the mixture was stirred overnight at room temperature. The mixture was filtered using a 0.45 μm PTFE filter and the concentration of compound A in the filtrate was quantified by high performance liquid chromatography (ODS column, UV detector). When the concentration of compound A exceeded 20%, the addition of compound A was stopped.

With `O=C1[C@@H]2[C@H]3CC[C@H](C3)[C@@H]2C(=O)N1CCCCN1CCN(c2ncccn2)CC1` [compound A, (1R,2S,3R,4S)—N-[4-[4-(pyrimidin-2-yl)piperazin-1-yl]butyl]-2,3-bicyclo[2.2.1]heptan dicarboxyimide] the “saturation solubility of compound A (tandospirone)” value (“saturation solubility” for short) (additive: N-methyl-2-pyrrolidone) was 15.4%, the “saturation solubility” value (additive: diisopropyl adipate) was 2.0% and the “saturation solubility” value (additive: dipropylene glycol) was 1.6%. For the same molecule, the “saturation solubility” value (additive: isopropyl myristate) was 0.6%, the “saturation solubility” value (additive: lactic acid, stirred overnight, drug addition stopped when solubility exceeded 20%) was “not less than 20%” and the “saturation solubility” value (additive: lauromacrogol (4)) was 2.0%. For the same molecule, the “saturation solubility” value (additive: levulinic acid, drug addition stopped when solubility exceeded 20%) was “not less than 20%”, the “saturation solubility” value (additive: oleic acid, drug addition stopped when solubility exceeded 20%) was “not less than 20%” and the “saturation solubility” value (additive: oleyl alcohol) was 1.0%. The “saturation solubility” value (additive: polysorbate 20) was 1.4%, the “saturation solubility” value (additive: polysorbate 80) was 1.4% and the “saturation solubility” value (additive: propylene glycol fatty acid diester (C8)) was 1.3%. For the same molecule, the “saturation solubility” value (additive: propylene glycol fatty acid ester (C8)) was 5.0%, the “saturation solubility” value (additive: propylene glycol fatty acid ester (C12)) was 5.9% and the “saturation solubility” value (additive: sorbitan monolaurate, measured as mixed solution isopropyl myristate/sorbitan monolaurate = 50/50) was 2.3%.
